Source: patent publication US11186577B2, “Vasopressin receptor antagonists and products and methods related thereto” (BlackThorn Therapeutics, Inc., priority 2017, dated 2021)

What was measured:
[1] = target: human Arginine Vasopressin Receptor 1a (AVPR1a) (Homo sapiens (Human), UniProt P37288); experiment: Vasopressin V1A receptor antagonist assay (AVP-evoked calcium, FLIPR, CHO-AVPR1a cells); assay type: cell-based; conditions: read-out: V1a IC50
Outline: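 Antagonism measured as reduction of AVP (EC80, set each assay day) calcium response on FLIPR in dye-loaded CHO-AVPR1a cells. Compounds, 3 μM top in 10-point 1:3 dilution, in duplicate, added 15 min before agonist at 37° C.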

[2] = target: human Arginine Vasopressin Receptor 1b (AVPR1b) (Homo sapiens (Human), UniProt P47901); experiment: Vasopressin V1B receptor antagonist assay (AVP-evoked calcium, FLIPR, CHO-AVPR1b cells); assay type: cell-based
human Arginine Vasopressin Receptor 1b (AVPR1b), sequence (P47901 whole entry): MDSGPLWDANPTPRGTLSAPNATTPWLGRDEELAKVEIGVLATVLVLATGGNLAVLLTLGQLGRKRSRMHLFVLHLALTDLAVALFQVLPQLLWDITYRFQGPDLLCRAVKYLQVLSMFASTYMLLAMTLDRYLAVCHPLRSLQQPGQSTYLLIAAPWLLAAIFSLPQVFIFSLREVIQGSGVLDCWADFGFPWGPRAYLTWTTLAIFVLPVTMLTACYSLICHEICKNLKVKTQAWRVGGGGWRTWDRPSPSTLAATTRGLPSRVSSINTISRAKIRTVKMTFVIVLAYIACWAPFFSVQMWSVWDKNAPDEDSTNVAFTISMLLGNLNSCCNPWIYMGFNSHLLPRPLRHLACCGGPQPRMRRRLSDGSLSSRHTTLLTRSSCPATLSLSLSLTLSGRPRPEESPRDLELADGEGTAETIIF
Method: The purpose of the assay is to determine the inhibitory effect of synthesized compounds on the Vasopressin V1b receptor. The assay was performed in Chinese Hamster Ovary (CHO) cells expressing the human Arginine Vasopressin Receptor 1b (AVPR1b). Arginine Vasopressin (AVP) evokes an increase in intracellular calcium in CHO-AVPR1b cells which is measured in a fluorescence assay on the FLIPR^TETRA using calcium sensitive dyes. Test compounds were assessed for their ability to affect the magnitude of the response to AVP, with antagonists showing a concentration-dependent reduction in the AVP-mediated fluorescence.
CHO-AVPR1b cells were maintained in routine culture in T175 Flasks at 37° C., 5% CO2. The growth medium consisted of Ham's F12 media supplemented with 10% v/v fetal bovine serum, 1× non-essential amino acids, and 0.4 mg/ml Geneticin G418.
Cells were harvested from T175 flasks when they were 80-90% confluent by first washing the cell monolayer with PBS and then dissociated using trypsin 0.05%/EDTA (3 mL for a T175 Flask). The flasks were incubated at room temperature until the cells detached. To the cell suspension, 10 ml of growth media was added and the cell density determined using the Vi-Cell automated cell counter. The cells were spun at 1000 rpm for 3 minutes, then the supernatant was carefully removed and discarded. The cell pellet was re-suspended at 6.0e^5 cells/ml in growth media. 25 μL of cells in growth media was dispensed into each well (15,000 cells per well) of a poly-D-lysine coated black, clear bottomed, 384-well plate. The plates were incubated at 37° C., 5% CO2 overnight.
At the start of each assay day, the potency of AVP is assessed and an EC80 concentration determined for subsequent compound profiling. Assays were performed using a two-step addition protocol on the FLIPR^TETRA; first addition of 5 μl of control or test compound at 10× final in assay buffer with 15 min incubation at 37° C., 5% CO2 followed by 10 μl of AVP at 6× final concentration in assay buffer. Changes in fluorescence were monitored for 3 min after both additions on the FLIPR^TETRA using 470-495 nm excitation and 515-575 nm emission wavelengths. The assay buffer consisted of HBSS (+Ca/+Mg) supplemented with 20 mM HEPES, and for the preparation of the AVP agonist only, 0.1% w/v bovine serum albumin. The assay was initiated by the removal of growth media from the cells and replacement with 45 μl of Calcium-6 dye (Molecular Devices) prepared at 1× in assay buffer. Cells were loaded with dye for 60-90 min at 37° C., 5% CO2 before initiation of the FLIPR^TETRA protocol. […] For compound profiling, test compounds were first serially diluted in DMSO (10-point curve, 1:3 dilutions) then diluted 33.3-fold in assay buffer prior to addition to the dye loaded cells on the FLIPR^TETRA. At the end of the incubation period 10 μl of AVP in assay buffer containing 0.1% BSA was added at the previously determined EC80 concentration.
In-plate controls for the assay include a Nelivaptan concentration-response curve as the reference V1b antagonist and an AVP concentration-response curve to confirm the reproducibility of the EC80 used for the compound challenge.

human Arginine Vasopressin Receptor 1a (AVPR1a), sequence (P37288 whole entry): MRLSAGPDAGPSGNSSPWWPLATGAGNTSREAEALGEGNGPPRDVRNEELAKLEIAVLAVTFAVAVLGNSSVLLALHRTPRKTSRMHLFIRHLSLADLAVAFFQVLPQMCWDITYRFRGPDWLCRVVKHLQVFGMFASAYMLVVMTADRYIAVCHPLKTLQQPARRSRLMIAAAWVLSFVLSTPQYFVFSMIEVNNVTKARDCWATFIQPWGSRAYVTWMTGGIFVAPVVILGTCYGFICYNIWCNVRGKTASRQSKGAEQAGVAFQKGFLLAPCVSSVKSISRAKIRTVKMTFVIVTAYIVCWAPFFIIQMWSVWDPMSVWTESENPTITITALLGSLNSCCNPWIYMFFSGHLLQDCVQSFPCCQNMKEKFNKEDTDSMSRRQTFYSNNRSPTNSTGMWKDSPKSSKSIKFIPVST

| Compound | IC50 [1] [nM] | IC50 [2] [nM] |
| --- | --- | --- |
| CC(CF)N1Cc2cc(Cl)ccc2-n2c(nnc2C2CC3(C2)CN(c2ccccn2)C3)C1 (stereo not drawn) [compound 58] | < 100 | > 1000 |
| FCCN1Cc2cc(Cl)ccc2-n2c(nnc2C2CC3(C2)CN(c2ccccn2)C3)C1 [compound 59] | < 100 | > 1000 |
| COC(=O)N1Cc2cc(Cl)ccc2-n2c(nnc2C2CC3(C2)CN(c2ccc(F)cn2)C3)C1 [compound 61] | < 100 | > 1000 |
| CC(C)C(=O)N1Cc2cc(Cl)ccc2-n2c(nnc2C2CC3(C2)CN(c2ccc(F)cn2)C3)C1 [compound 63] | < 100 | > 1000 |
| CC(=O)N1Cc2cc(Cl)ccc2-n2c(nnc2C2CC3(C2)CN(c2ccc(F)cn2)C3)C1 [compound 64] | < 100 | > 1000 |
| CCC(=O)N1Cc2cc(Cl)ccc2-n2c(nnc2C2CC3(C2)CN(c2ccccn2)C3)C1 [compound 67] | < 100 | > 1000 |
| CCOC(=O)N1Cc2cc(Cl)ccc2-n2c(nnc2C2CC3(C2)CN(c2ccc(F)cn2)C3)C1 [compound 69] | < 100 | > 1000 |
| COC(=O)N1Cc2cc(Cl)ccc2-n2c(nnc2C2CC3(C2)CN(c2ccccn2)C3)C1 [compound 70] | < 100 | > 1000 |
| CC(C)C(=O)N1Cc2cc(Cl)ccc2-n2c(nnc2C2CC3(C2)CN(c2ccccn2)C3)C1 [compound 71] | < 100 | > 1000 |
| CCC(=O)N1Cc2cc(Cl)ccc2-n2c(nnc2C2CC3(C2)CN(c2ccc(F)cn2)C3)C1 [compound 72] | < 100 | > 1000 |
| CC(CF)OC(=O)N1Cc2cc(Cl)ccc2-n2c(nnc2C2CC3(C2)CN(c2ccc(F)cn2)C3)C1 (stereo not drawn) [compound 78] | < 100 | > 1000 |
| O=C(OC(CF)CF)N1Cc2cc(Cl)ccc2-n2c(nnc2C2CC3(C2)CN(c2ccc(F)cn2)C3)C1 [compound 79] | < 100 | > 1000 |
| O=C(N1Cc2cc(Cl)ccc2-n2c(nnc2C2CC3(C2)CN(c2cnccn2)C3)C1)C1(F)CC1 [compound 81] | < 100 | > 1000 |
| O=C(OC1CC1)N1Cc2cc(Cl)ccc2-n2c(nnc2C2CC3(C2)CN(c2ccc(F)cn2)C3)C1 [compound 90] | < 100 | > 1000 |
| O=C(N1Cc2cc(Cl)ccc2-c2c(C3CC4(C3)CN(c3cccnn3)C4)noc2C1)C(F)(F)F [compound 105] | < 100 | > 1000 |
| O=C(C(F)F)N1Cc2cc(Cl)ccc2-n2c(nnc2C2CC3(C2)CN(c2ccccn2)C3)C1 [compound 122] | < 100 | > 1000 |
| O=C(C(F)F)N1Cc2cc(Cl)ccc2-n2c(nnc2C2CC3(C2)CN(C(=O)C2(F)CC2)C3)C1 [compound 134] | < 100 | > 1000 |
| O=C(C1CC1)N1CC2(CC(c3nnc4n3-c3ccc(Cl)cc3CN(C(=O)C3(F)CC3)C4)C2)C1 [compound 136] | < 100 | > 1000 |

| Compound | IC50 [1] [nM] | IC50 [2] [nM] |
| --- | --- | --- |
| COC(=O)N1Cc2cc(Cl)ccc2-n2c(C3CC4(C3)CN(c3ccc(F)cn3)C4)nnc2C1C (stereo not drawn) [compound 142, methyl 8-chloro-1-(2-(5-fluoropyridin-2-yl)-2-azaspiro[3.3]heptan-6-yl)-4-methyl-4H-benzo[f][1,2,4]triazolo[4,3-a][1,4]diazepine-5(6H)-carboxylate] | < 100 | > 1000 |
| CC(C)OC(=O)N1Cc2cc(Cl)ccc2-n2c(nnc2C2CC3(C2)CN(C(=O)C2CC2)C3)C1 [compound 153] | < 100 | > 1000 |
| CC(C)OC(=O)N1Cc2cc(Cl)ccc2-n2c(C3CC4(C3)CN(c3cnccn3)C4)nnc2C1C (stereo not drawn) [compound 164] | < 100 | > 1000 |
| COC(=O)N1Cc2cc(Cl)ccc2-n2c(C3CC4(C3)CN(c3cnccn3)C4)nnc2C1C (stereo not drawn) [compound 165] | < 100 | > 1000 |
| COC(=O)N1Cc2cc(Cl)ccc2-n2c(C3CC4(C3)CN(c3ncccn3)C4)nnc2C1C (stereo not drawn) [compound 166] | < 100 | > 1000 |
| CC(C)OC(=O)N1Cc2cc(Cl)ccc2-n2c(C3CC4(C3)CN(c3ncccn3)C4)nnc2C1C (stereo not drawn) [compound 167] | < 100 | > 1000 |
| CCOC(=O)N1Cc2cc(Cl)ccc2-n2c(C3CC4(C3)CN(c3ncccn3)C4)nnc2C1C (stereo not drawn) [compound 168] | < 100 | > 1000 |
| CCOC(=O)N1Cc2cc(Cl)ccc2-n2c(C3CC4(C3)CN(c3ccc(F)cn3)C4)nnc2C1C (stereo not drawn) [compound 169] | < 100 | > 1000 |
| COC(=O)N1Cc2cc(Cl)ccc2-n2c(C3CC4(C3)CN(c3ncc(F)cn3)C4)nnc2C1C (stereo not drawn) [compound 170] | < 100 | > 1000 |
| CC1c2nnc(C3CC4(C3)CN(c3ncccn3)C4)n2-c2ccc(Cl)cc2CN1C(=O)OC1CC1 (stereo not drawn) [compound 171] | < 100 | > 1000 |
| CCOC(=O)N1Cc2cc(Cl)ccc2-n2c(C3CC4(C3)CN(c3ncc(F)cn3)C4)nnc2C1C (stereo not drawn) [compound 172] | < 100 | > 1000 |
| CC1c2nnc(C3CC4(C3)CN(c3ncc(F)cn3)C4)n2-c2ccc(Cl)cc2CN1C(=O)OC1(C)CC1 (stereo not drawn) [compound 173] | < 100 | > 1000 |
| CC1c2nnc(C3CC4(C3)CN(c3ccc(F)cn3)C4)n2-c2ccc(Cl)cc2CN1C(=O)C1(F)CC1 (stereo not drawn) [compound 174] | < 100 | > 1000 |
| CC1c2nnc(C3CC4(C3)CN(c3ncccn3)C4)n2-c2ccc(Cl)cc2CN1C(=O)C1(F)CC1 (stereo not drawn) [compound 175] | < 100 | > 1000 |
| CC1c2nnc(C3CC4(C3)CN(c3cnccn3)C4)n2-c2ccc(Cl)cc2CN1C(=O)C1(F)CC1 (stereo not drawn) [compound 177] | < 100 | > 1000 |
| COC(=O)N1Cc2cc(Cl)ccc2-n2c(C3CC4(C3)CN(c3cccc(C)n3)C4)nnc2C1C (stereo not drawn) [compound 180] | < 100 | > 1000 |
| COC(=O)N1Cc2cc(Cl)ccc2-n2c(C3CC4(C3)CN(c3ncccc3F)C4)nnc2C1C (stereo not drawn) [compound 182] | < 100 | > 1000 |
| CC1c2nnc(C3CC4(C3)CN(c3ncc(F)cn3)C4)n2-c2ccc(Cl)cc2CN1C(=O)OC(CF)CF (stereo not drawn) [compound 194] | < 100 | > 1000 |
